Assays:
[1] = system: T1, purified chitinase from black soybean seeds (acidic chitinase, 20.1 kDa); assay: fluorimetric release of 4-methylumbelliferone, Lineweaver-Burk; type: biochemical, Glycine max; conditions: pH 5.0, 40 °C, 0.05 M sodium acetate, 30 min
T1 construct: native purification from seeds; monomer; smaller than known soybean seed class III (28 kDa) and class I (32 kDa) chitinases; trace basic isoform co-purified
Text: fluorimetric release of 4-methylumbelliferone, Lineweaver-Burk on purified chitinase from black soybean seeds (acidic chitinase, 20.1 kDa)

[2] = system: T1, purified chitinase from black soybean seeds (acidic chitinase, 20.1 kDa); assay: p-nitrophenol release at […] nm, Lineweaver-Burk; type: biochemical, Glycine max; conditions: pH 4.0, 37 °C, 0.05 M acetate, 30 min

CC(=O)N[C@H]1[C@H](Oc2ccc3c(C)cc(=O)oc3c2)O[C@H](CO)[C@@H](O[C@@H]2O[C@H](CO)[C@@H](O[C@@H]3O[C@H](CO)[C@@H](O)[C@H](O)[C@H]3NC(C)=O)[C@H](O)[C@H]2NC(C)=O)[C@@H]1O [4-MU-GlcNAc3]
Km [1]: 17.4 µM

CC(=O)N[C@H]1[C@H](Oc2ccc([N+](=O)[O-])cc2)O[C@H](CO)[C@@H](O[C@@H]2O[C@H](CO)[C@@H](O[C@@H]3O[C@H](CO)[C@@H](O[C@@H]4O[C@H](CO)[C@@H](O)[C@H](O)[C@H]4NC(C)=O)[C@H](O)[C@H]3NC(C)=O)[C@H](O)[C@H]2NC(C)=O)[C@@H]1O [pNp-GlcNAc4]
Km [2]: 245 µM
